Reference: patent US6514951B1, “Pour-on formulations effective for the control of internal and external parasites of homothermic animals” (American Cyanamid Company, priority 1989, dated 2003)

System: gastrointestinal nematodes
Experiment: Influence of simulated rain on reduction of nematode egg output in feces of cattle after pour-on
Assay type: in vivo, Cooperia, Haemonchus, Ostertagia and Trichostrongylus
Conditions: at all times posttreatment regardless of exposure to simulated rainfall
From the text: The objective of this study is to determine the potential effect of rainfall on the efficacy of a pour-on formulation of 23-(O-methyloxime)-LL-F28249α (0.5% w/v) against gastrointestinal nematodes. Formulation 10 reported in Example 2, above, is employed for the study.
Forty-eight mixed beef breed heifers are ranked according to the average of the day −3 and day −2 fecal nematode egg counts and randomly assigned to the following groups of 6 animals each:
All cattle treated with 23-(O-methyloxime)-LL-F28249α pour-on are treated with 0.5 mg 23-(O-methyloxime)-LL-F28249α per kg of body weight. All animals exposed to simulated rain are sprayed with the equivalent of 1 inch of water for 30 minutes.
Following treatment, cattle are housed in outdoor pens which are partially covered by a three sided shed. Cattle remain outdoors during the entire posttreatment period. However, they are confined to a covered portion of the pen when it is raining or rainfall is imminent. […]
The simulated rainfall apparatus used in this trial consists of a 12 feet×12 feet pen with right angle directional spray nozzles in each corner. It is calculated that 89.75 gallons of water applied to this size pen are the equivalent of 1 inch of rain. […]
Fecal samples are taken from all animals on days 7, 14 and 21 posttreatment to evaluate nematode egg counts. The values are expressed as number of eggs per 1 g of feces.

Compound: CO/N=C1\C[C@]2(C[C@@H]3CC(C/C=C(\C)C[C@@H](C)/C=C/C=C4\CO[C@@H]5[C@H](O)C(C)=C[C@@H](C(=O)O3)[C@]45O)O2)O[C@H](/C(C)=C/C(C)C)[C@H]1C [23-(O-methyloxime)-LL-F28249α]
- nematode egg counts (in words): significantly reduces
